pKi: −log10 of the molar value. Where two headings read alike, the source gives them in different places.
How the values were obtained:
mouse CB1R = target: T1, mouse CB1R (Mus musculus, UniProt P47746); test: Radioligand competition displacement binding, [3H]CP-55,940, mouse brain membranes
T1 construct: crude membranes from mouse brain; from tissue; host or cells: mouse brain cortex (without cerebellum) membranes, C57Bl/6Jhsd mice
Protocol: BNS compounds’ binding to CB1R and CB2R was assessed in competition displacement assays using [^3H]CP-55,940 as the radioligand and crude membranes from mouse brain or human cells overexpressing the CB1R or CB2R. All data were in triplicates with Ki values determined from three independent experiments. See SI for a detailed procedure.
Supplementary Experimental Methods
Brain membrane preparation for CB1R b i nd i ng . The mouse cortex, excluding the cerebellum, was dissected from 6-week-old C57Bl/6Jhsd mice (Harlan, Israel). The tissue was homogenized in 4 mL Buffer 1 (320 mM sucrose, 2 mM EDTA, 5 m M MgCl 2) using a glass-Teflon homogenizer and Hei-T ORQUE 200 (Heidolph; Cat# 17-012- 002- 25 -1) homogenizer set to 132 rpm. After homogenization, the mixture was centrifuged at 1,600 × g for 10 min at four °C, and the resulting supernatant was kept on ice. The pellet (P1) was discarded, and the remaining supernatant was subje cted to additional rounds of resuspension in 4 mL Buffer 1 followed by centrifugations, repeating this process three times. The pellets obtained from these centrifugations were discarded, and the three supernatant fractions were combined and subjected to higher-speed centrifugation at 39,000 × g for 15 min at f ou r °C. […] This resuspended pellet ( P 2 ) was incubated at 37 °C for 10 min and then centrifuged at 23, 000 × g for 10 min at 4°C.
After centrifugation, the pellet (P2) was resuspended in 5 mL Buffer 2 and further incubated at 30 °C for 40 min. Following this incubation, the suspension was centrifuged at 11,000 × g for 15 min at 4 °C. The pellet (P2) was resuspended in 2 mL Buffer 3 containing 50 mM TRIS HCl pH 7.4, 1 mM EDTA, and 3 mM MgCl 2. T h e protein concentration of the final suspension was determined using the BCA assay.
Subsequently, the suspension was diluted to a final concentration of 2 mg/mL in Buffer 3, aliquoted on ice, and stored at - 80 °C for further use.
CB1R and CB2R binding. Binding to the CB1R/CB2R was asse ss ed using competition displacement as says with [ 3H] CP -55,940 as the radioligand. Purified membranes from the mouse brain were utilized for CB1R assessment (as described above). Purified […]
membranes from cells overexpressing human CB2R ( Char les River CAT # A618) w e r e employed for CB2R evaluation.
For mouse CB1R binding assays, the novel compounds were dissolved in dimethyl sulfoxide (DMSO) to reach a final concentration of 10 mM. Each compound was then diluted in Buffer 3 (as described above) supplemented with 0.14% BSA, resulting in concentrations ranging from 10^-4 M to 10^-10 M. Triplicates of 100 µL of each concentration were dispensed into siliconized glass tubes. At the same time, 100 µL of Buffer 3 with 0.14% BSA was dispensed into three tubes as blanks. CB1R b r a i n membranes (20 µg) were added to each tube and diluted with 800 µL Buffer 3 with 0.14% BSA. Subsequently, 5 nM of [ 3H] CP -55,940 (100 µL) was added to each tube.
The tubes were sealed with parafilm and incubated with shaking (120 rpm) in a water bath at 30 °C for 1 hour. Following incubation, 2 mL of cold Buffer 4 (50 mM TRIS HCl pH 7.4, 1 mg/mL BSA) was added to each tube.
To harvest the content of each tube, a Brandel M-24R Vacuum Harvester was employed, with a wet WHATMAN GF/B filter paper (Fired) (one membrane for 12 tubes) placed in the harvester after being washed twice with Buffer 4. The filter membrane in the harvester absorbed the full content of each tube. Then, the filter membrane was wash ed six times with Buffer 4. Each filter -glass membrane tube wa s excised and transferred to a 20 mL glass tube co ntaining a 5 mL ULTIMA GOLD scintillation cocktail. […]

P-gp (MDR1-MDCKII cells) = P-gp (MDR1-MDCKII cells) (Homo sapiens, UniProt P08183); test: Bidirectional permeability in MDR1-MDCKII cells with and without GF120918; settings: for P-gp substrate: MDR1-MDCKII cells; for Rank Papp: MDR1-MDCKII permeability rank
P-gp (MDR1-MDCKII cells), sequence (P08183 whole entry): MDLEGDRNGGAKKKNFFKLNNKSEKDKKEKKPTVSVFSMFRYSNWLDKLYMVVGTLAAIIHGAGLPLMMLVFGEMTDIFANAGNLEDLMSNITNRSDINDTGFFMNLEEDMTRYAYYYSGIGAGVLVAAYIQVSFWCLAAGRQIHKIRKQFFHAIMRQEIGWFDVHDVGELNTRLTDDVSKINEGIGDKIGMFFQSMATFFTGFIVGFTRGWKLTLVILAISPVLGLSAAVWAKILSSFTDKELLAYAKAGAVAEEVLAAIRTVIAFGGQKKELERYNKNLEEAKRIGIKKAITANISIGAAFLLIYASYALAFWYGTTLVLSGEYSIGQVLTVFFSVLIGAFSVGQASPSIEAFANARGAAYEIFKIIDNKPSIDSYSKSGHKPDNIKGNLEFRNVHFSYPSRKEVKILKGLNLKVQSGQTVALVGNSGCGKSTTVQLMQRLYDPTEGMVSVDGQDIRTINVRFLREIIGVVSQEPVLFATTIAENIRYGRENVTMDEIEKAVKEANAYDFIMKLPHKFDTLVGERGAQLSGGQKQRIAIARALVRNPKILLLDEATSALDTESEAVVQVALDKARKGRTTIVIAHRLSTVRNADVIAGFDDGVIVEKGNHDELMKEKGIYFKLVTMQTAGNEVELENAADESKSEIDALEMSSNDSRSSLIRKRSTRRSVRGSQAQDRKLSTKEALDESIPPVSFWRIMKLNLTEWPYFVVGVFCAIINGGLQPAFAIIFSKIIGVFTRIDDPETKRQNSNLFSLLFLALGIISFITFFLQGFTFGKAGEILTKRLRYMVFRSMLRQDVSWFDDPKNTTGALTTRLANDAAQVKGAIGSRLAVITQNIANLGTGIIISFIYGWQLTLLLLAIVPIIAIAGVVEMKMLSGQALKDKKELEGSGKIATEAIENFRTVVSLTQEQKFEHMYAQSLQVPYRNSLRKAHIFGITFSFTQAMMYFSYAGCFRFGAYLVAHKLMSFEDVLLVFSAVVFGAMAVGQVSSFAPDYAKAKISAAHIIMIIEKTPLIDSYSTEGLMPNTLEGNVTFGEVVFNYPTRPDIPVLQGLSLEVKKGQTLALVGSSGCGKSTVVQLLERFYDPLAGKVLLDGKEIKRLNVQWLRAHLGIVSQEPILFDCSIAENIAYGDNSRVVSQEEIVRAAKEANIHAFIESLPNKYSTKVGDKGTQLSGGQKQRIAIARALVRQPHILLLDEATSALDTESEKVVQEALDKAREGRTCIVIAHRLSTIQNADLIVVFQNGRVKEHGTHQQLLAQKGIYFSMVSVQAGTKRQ
Protocol: (§1) MDR1-MDCKII cells were seeded onto […] (PET) in a 96-well insert system. Test and reference compounds were administered to the apical (A-to-B) and basolateral (B-to-A) sides of the cell monolayer. Permeation of the compounds in both directions was assessed, with and without a P-glycoprotein (P-gp) inhibitor (GF120918). […] After a 2.5-h incubation period, each compound’s permeability and efflux ratio were calculated as described in the SI. […]
(§2) Bidirectional permeability assessment in MDR1-MDCK cells. Test and reference compounds were quantified using LC -MS/MS ana lysis based on th e peak ar ea r atio of analyte to internal standard (IS). T he apparent permeability coefficient (Papp) in cm/s was computed using the equation: Pa pp = (dCr/d t ) × V r / ( A × C 0), where dCr/ d t […]
(§3) represents the cumulative concentration of the compound in the receiver chamber over time (µM/s), Vr is the solution volume in the receiver chamber (0.075 mL on the apical side, 0.25 mL on the basolateral side), A is the surface area for transport (0.0804 cm2 f or the monolayer ar ea), and C0 is the initial concentration in the donor chamber ( µM) .
(§4) The efflux ratio was determined using the equation Efflux Ratio = P a pp ( B:
(§5) A ) / Pa pp (A: B) . […]
(§6) Additionally, the percent of lucifer yellow in the basolateral well was calculated using the equation:
(§7) Lucif er yellow = VV bbbbbbbbbbbbbbbbbbbb ×RR FFFF bbbbbbbbbbbbbbbbbbbb ×100 VV bbaaaaaa bbbb ×RRRRRR bbaaaaaa bbbb+VV bbbbbbbbbbbbbbbbbbbb ×RRFFFF bbbbbbbbbbbbbbbbbbbb wher e RFUApical and RFUBasolateral demote the r elative f luor escence unit values of lucif er yellow in the apical and basolateral wells, respectively, and VApical and VBasolateral represent the volumes of apical and basolateral wells (0.075 mL and 0.25 mL, r espectively) . T he % Lucif er Yellow should be less than 2, indicating minimal leakage. […]

P-gp (MDR1) = P-gp (MDR1) (Homo sapiens, UniProt P08183); test: as above; settings: dog; for Papp A→B at 2.5 h / Papp B→A at 2.5 h / efflux ratio at 2.5 h: MDCK-MDR1
P-gp (MDR1), sequence (P08183 whole entry): as above
Protocol: as §1, §2, §3, §4, §5, §6, §7

[1] = [3H]CP-55,940 displacement, mouse brain membranes, read-out: CB1R mKi
[2] = MDCK-MDR1, Mean recovery % A to B, without GF120918
[3] = MDCK-MDR1, Mean recovery % B to A, without GF120918

T1 sequence (P47746 whole entry): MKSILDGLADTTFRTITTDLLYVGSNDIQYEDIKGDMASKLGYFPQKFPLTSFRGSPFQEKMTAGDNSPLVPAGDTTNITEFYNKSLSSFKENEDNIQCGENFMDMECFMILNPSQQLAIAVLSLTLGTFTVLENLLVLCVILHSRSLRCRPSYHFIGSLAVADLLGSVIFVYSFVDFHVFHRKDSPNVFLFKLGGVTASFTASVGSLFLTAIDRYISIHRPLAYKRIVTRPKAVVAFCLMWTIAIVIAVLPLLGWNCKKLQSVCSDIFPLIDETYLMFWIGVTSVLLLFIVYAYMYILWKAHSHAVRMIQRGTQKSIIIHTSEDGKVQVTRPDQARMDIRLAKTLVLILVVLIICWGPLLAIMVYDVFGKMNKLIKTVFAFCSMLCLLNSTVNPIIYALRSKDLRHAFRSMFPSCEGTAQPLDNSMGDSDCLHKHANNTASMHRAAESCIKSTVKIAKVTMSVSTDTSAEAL

Row | pKi (mouse CB1R; [1]) | recovery at 2.5 h (P-gp (MDR1); MDCK-MDR1, with GF120918 (concentration not stated), Mean recovery % A to B, with GF120918) [%] | recovery at 2.5 h (P-gp (MDR1); MDCK-MDR1, with GF120918 (concentration not stated), Mean recovery % B to A, with GF120918) [%] | SMILES | P-gp substrate (P-gp (MDR1-MDCKII cells)) | Rank Papp (P-gp (MDR1-MDCKII cells)) | Papp A→B at 2.5 h (P-gp (MDR1)) [×10⁻⁶ cm/s] | Papp B→A at 2.5 h (P-gp (MDR1)) [×10⁻⁶ cm/s] | efflux ratio at 2.5 h (P-gp (MDR1)) | recovery at 2.5 h (P-gp (MDR1); [2]) [%] | recovery at 2.5 h (P-gp (MDR1); [3]) [%] | pKi (mouse CB1R) | Papp A:B (P-gp (MDR1-MDCKII cells); A to B, without GF120918) | recovery at 2.5 h (P-gp (MDR1); MDCK-MDR1, Mean recovery % A to B, with GF120918) [%] | recovery at 2.5 h (P-gp (MDR1); MDCK-MDR1, Mean recovery % B to A, with GF120918) [%]
1 | 7.75 | 63.8 | 77.6 | CS(=O)(=O)N1CCC(C(=O)NC2CCCOc3c2nn(-c2ccccc2Cl)c3-c2ccc(Cl)cc2)CC1 (stereo not shown) [BNS815, N-[2-(2-Chlorophenyl)-3-(4-chlorophenyl)-5,6,7,8-tetrahydrooxepino[3,2-c]pyrazol-8-yl]-1-methylsulfonyl-piperidine-4-carboxamide] | yes | Hi gh | 10.1 | 18.9 | 1.87 | 75.2 | 76.1 |  |  |  | 
2 |  |  |  | O=S(=O)(NC1CCCOc2c1nn(-c1ccccc1Cl)c2-c1ccc(Cl)cc1)c1ccc(Cl)cc1 (stereo not shown) [BNS808, 4-chloro-N-[2-(2-chlorophenyl)-3-(4-chlorophenyl)-5,6,7,8-tetrahydrooxepino[3,2-c]pyrazol-8-yl]benzenesulfonamide] | P-gp substrate and P-gp substrates and yes | Low | 0.26 | 1.01 | 3.95 | 7.9 | 15.3 | 9.15 | 0.26 ×10^–6 cm/s | 7.87 | 23.4
3 | 8.00 |  |  | Cc1ccc(S(=O)(=O)NC2CCCOc3c2nn(-c2ccccc2Cl)c3-c2ccc(Cl)cc2)cc1 (stereo not shown) [BNS807] |  |  |  |  |  |  |  |  |  |  | 

From article PMC12067444, “Synthesis and Pharmacological Characterization of Novel Peripheral Cannabinoid-1 Receptor Blockers Based on a Tricyclic Scaffold” (Journal of Medicinal Chemistry, 2025)
